Reference: article PMC2649372 (Biochemistry, 2008)
Numbering of substitutions follows the chain as printed. Marks after values point to notes of the source that are not given here.

Assays:
Assay in all cases: Agonist-induced currents, voltage clamp electrophysiology in Xenopus oocytes
Format in all cases: cell-based
[1] = molecular target: T1, N128K mutant 5-HT3 receptor (mouse 5-HT3A subunit) (Mus musculus, UniProt P23979, N128K)
T1 sequence (P23979 24-489 N128K): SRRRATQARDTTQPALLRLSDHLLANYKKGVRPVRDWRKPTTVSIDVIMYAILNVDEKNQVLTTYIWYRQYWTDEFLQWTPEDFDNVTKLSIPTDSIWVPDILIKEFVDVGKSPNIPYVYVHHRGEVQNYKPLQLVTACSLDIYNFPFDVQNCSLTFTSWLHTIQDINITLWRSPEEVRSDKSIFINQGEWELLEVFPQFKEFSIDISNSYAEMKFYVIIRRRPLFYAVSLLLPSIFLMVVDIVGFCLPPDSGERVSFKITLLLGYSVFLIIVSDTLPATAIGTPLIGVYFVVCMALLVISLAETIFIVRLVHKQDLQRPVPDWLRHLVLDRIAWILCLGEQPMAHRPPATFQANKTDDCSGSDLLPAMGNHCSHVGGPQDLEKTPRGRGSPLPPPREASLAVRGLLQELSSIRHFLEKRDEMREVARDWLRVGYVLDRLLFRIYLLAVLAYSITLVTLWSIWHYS

[2] = molecular target: T2, N128D mutant 5-HT3 receptor (mouse 5-HT3A subunit) (Mus musculus, UniProt P23979, N128D); conditions: N128D
T2 sequence (P23979 24-483 isoform P23979-2 N128D limits assumed): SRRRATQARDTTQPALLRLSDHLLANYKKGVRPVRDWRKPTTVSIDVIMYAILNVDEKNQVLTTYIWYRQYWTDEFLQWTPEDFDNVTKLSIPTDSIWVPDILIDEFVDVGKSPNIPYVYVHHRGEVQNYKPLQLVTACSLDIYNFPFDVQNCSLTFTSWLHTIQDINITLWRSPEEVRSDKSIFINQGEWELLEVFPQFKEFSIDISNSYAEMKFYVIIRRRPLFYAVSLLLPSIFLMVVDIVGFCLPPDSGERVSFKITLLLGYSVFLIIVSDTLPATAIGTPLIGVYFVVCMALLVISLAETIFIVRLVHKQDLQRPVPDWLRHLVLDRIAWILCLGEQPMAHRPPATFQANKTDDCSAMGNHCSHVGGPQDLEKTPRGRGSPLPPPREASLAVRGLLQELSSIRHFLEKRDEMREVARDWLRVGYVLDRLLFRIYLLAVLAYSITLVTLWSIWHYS

[3] = molecular target: T3, WT 5-HT3 receptor (mouse 5-HT3A subunit) (Mus musculus, UniProt P23979); conditions: WT
T3 sequence (P23979 24-483 isoform P23979-2 limits assumed): T2 sequence (P23979 24-483 isoform P23979-2 N128D limits assumed) with D105N

[4] = molecular target: T4, N128E mutant 5-HT3 receptor (mouse 5-HT3A subunit) (Mus musculus, UniProt P23979, N128E); conditions: N128E
T4 sequence (P23979 24-483 isoform P23979-2 N128E limits assumed): T2 sequence (P23979 24-483 isoform P23979-2 N128D limits assumed) with D105E

[5] = molecular target: T5, N128A mutant 5-HT3 receptor (mouse 5-HT3A subunit) (Mus musculus, UniProt P23979, N128A); conditions: N128A
T5 sequence (P23979 24-483 isoform P23979-2 N128A limits assumed): T2 sequence (P23979 24-483 isoform P23979-2 N128D limits assumed) with D105A

[6] = oocytes, holding potential −60 mV

Row | EC50 [1] | pEC50 [1] | EC50 [2] | pEC50 ([2]; SR = small (<100 nA) responses) | EC50 [3, 6] | pEC50 [3, 6] | EC50 [4] | pEC50 [4] | EC50 [5] | pEC50 [5] | Compound | nH (Hill coefficient) [1] | nH (Hill coefficient) [2] | nH (Hill coefficient) [3] | nH (Hill coefficient) [4] | nH (Hill coefficient) [5]
1 | 3900 nM | 5.41 ± 0.03 ^b | 270 nM | 6.56 ± 0.03 | 470 nM | 6.33 ± 0.02 | 280 nM | 6.56 ± 0.03 | 1100 nM | 5.95 ± 0.02 | N=C(N)NC(=N)Nc1cccc(Cl)c1 [mCPBG, m-chlorophenylbiguanide] | 1.43 ± 0.16 | 1.54 ± 0.15 | 2.03 ± 0.23 | 1.81 ± 0.019 | 1.33 ± 0.08
2 |  |  |  |  |  |  |  |  |  |  | NCCc1c[nH]c2ccc(O)cc12 [5-HT, 5-hydroxytryptamine] | 2.13 ± 0.38 | 1.63 ± 0.08 ^b | 2.54 ± 0.15 | 1.48 ± 0.18 ^b | 1.34 ± 0.13 ^b
